Results reported in US8906917B2, “Pyrimidine cyclohexyl glucocorticoid receptor modulators” (Corcept Therapeutics, Inc., priority 2011, dated 2014).

Columns and labels:
[1] = molecular target: T1, glucocorticoid receptors (endogenous) in SW1353/MMTV-5 cells (Homo sapiens, UniProt P04150); experiment: GR functional assay using SW1353/MMTV-5 cells (MMTV-GRE luciferase reporter); type: cell-based
T1 construct: contains endogenous glucocorticoid receptors; endogenous in cells; host or cells: SW1353/MMTV-5 (human chondrosarcoma, stably transfected with pMAMneo-Luc reporter)
T1 sequence (P04150 1-777): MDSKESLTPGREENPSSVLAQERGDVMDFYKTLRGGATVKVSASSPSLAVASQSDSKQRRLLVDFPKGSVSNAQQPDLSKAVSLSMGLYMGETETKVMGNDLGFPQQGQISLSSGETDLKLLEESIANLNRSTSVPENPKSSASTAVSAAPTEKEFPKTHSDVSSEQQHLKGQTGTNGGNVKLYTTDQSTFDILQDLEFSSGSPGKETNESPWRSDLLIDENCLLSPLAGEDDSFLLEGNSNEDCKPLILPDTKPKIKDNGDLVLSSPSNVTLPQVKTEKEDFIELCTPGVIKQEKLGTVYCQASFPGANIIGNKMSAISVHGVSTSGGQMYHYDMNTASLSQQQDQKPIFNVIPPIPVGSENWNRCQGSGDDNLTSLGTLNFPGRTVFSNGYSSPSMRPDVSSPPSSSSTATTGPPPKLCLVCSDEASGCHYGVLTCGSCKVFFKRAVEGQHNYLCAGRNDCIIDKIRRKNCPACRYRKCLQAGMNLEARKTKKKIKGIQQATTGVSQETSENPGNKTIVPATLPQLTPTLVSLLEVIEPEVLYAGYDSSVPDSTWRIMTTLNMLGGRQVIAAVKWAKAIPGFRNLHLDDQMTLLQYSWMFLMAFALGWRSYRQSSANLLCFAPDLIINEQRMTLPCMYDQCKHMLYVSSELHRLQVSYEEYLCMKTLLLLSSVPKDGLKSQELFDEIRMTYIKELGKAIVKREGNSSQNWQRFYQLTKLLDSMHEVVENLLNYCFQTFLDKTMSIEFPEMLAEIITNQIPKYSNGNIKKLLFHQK
Experimental: SW1353/MMTV-5 is an adherent human chondrosarcoma cell line that contains endogenous glucocorticoid receptors. It was transacted with a plasmid (pMAMneo-Luc) encoding firefly luciferase located behind a glucocorticoid-responsive element (GRE) derived from a viral promoter (long terminal repeat of mouse mammary tumor virus). A stable cell line SW1353/MMTV-5 was selected with geneticin, which was required to maintain this plasmid.
SW1353/MMTV-5 cells were distributed in 96-well plates and incubated in medium (without geneticin) for 24 hrs.

[2] = molecular target: T2, Human Recombinant Glucocorticoid Receptor (Homo sapiens, UniProt P04150); experiment: Glucocorticoid receptor binding displacement assay with 3H-dexamethasone; details: displacement of 2.5 nM 3H-dexamethasone, 2.5 hrs at 4° C.; Ki from IC50 by Cheng-Prusoff; read-out: GR Binding Ki
T2 construct: This GR was a full-length steroid hormone receptor; host or cells: recombinant baculovirus-infected insect cells
T2 sequence (P04150 1-777): T1 sequence (P04150 1-777)
Experimental: Binding protocol: Compounds were tested in a binding displacement assay using human recombinant glucocorticoid receptor with ^3H-dexamethasone as the ligand. The source of the receptor was recombinant baculovirus-infected insect cells. This GR was a full-length steroid hormone receptor likely to be associated with heat-shock and other endogenous proteins.
For the IC50 determinations, test compounds were tested at 6 concentrations in duplicate. Test compounds were diluted from 10 mM stock in 100% DMSO. The tested solutions were prepared at 2× final assay concentration in 2% DMSO/assay buffer.
All reagents and the assay plate were kept on ice during the addition of reagents. The reagents were added to wells of a v-bottomed polypropylene plate in the following order: 25 μl of 10 nM 3H-dexamethasone solution, 50 μl of TB/NSB/compound solution and 25 μl of 2 nM GR solution. After the additions, the incubation mixture was mixed and incubated for 2.5 hrs at 4° C.
Alter 2.5 hrs incubation, unbound counts were removed with dextran coated charcoal (DCC) as follows: 15 μl of DCC solution (10% DCC in assay buffer) was added to all wells and mixed (total volume 115 μl). The plate was centrifuged at 4000 rpm for 10 minutes at 4° C. 75 μl of the supernatants was carefully pipetted into an optiplate. 150 μl of scintillation cocktail were added (Microscint-40, Perkin Elmer). The plate was vigorously shaken for approx. 10 minutes and counted on Topcount.
The IC50 values were converted to Ki (the inhibition constant) using the Cheng-Prusoff equation.
Reagents: Assay buffer: 10 mM potassium phosphate buffer pH 7.6 containing 5 mM DTT, 10 mM sodium molybdate, 100 μM EDTA and 0.1% BSA.

Row | Compound | Ki [1] | Ki [2]
1 | O=c1[nH]c([C@H]2CC[C@H](c3ccccc3)CC2)c(Cc2cccc(Cl)c2Cl)c(=O)n1CCCN1CCOCC1 [Compound 13c] | > 100 nM | > 10 nM
2 | Cc1cccc(Cc2c(=O)[nH]c(=S)[nH]c2[C@H]2CC[C@H](c3ccccc3)CC2)c1 [Compound 12g, (E)-6-(4-Phenylcyclohexyl)-2-thioxo-5-(3-methylbenzyl)-2,3-dihydro-1H-pyrimidin-4-one] | > 100 nM | > 10 nM
3 | O=c1[nH]c(=O)c(Cc2ccc(F)c(Cl)c2)c([C@H]2CC[C@H](c3ccccc3)CC2)[nH]1 [Compound 3aa] | < 50 nM | > 10 nM
4 | Cc1ccnc(Cc2c(=O)[nH]c(=O)[nH]c2[C@H]2CC[C@H](c3ccccc3)CC2)c1 [Compound 3q] | < 50 nM | > 10 nM
5 | O=c1[nH]c(=O)c(Cc2ncccc2Cl)c([C@H]2CC[C@H](c3ccccc3)CC2)[nH]1 [Compound 3m] | > 100 nM | > 10 nM
6 | O=c1[nH]c(=O)c(Cc2cccc(C(F)(F)F)n2)c([C@H]2CC[C@H](c3ccccc3)CC2)[nH]1 [Compound 3l] | < 50 nM | 5 to 10 nM
7 | O=c1[nH]c(=O)c(Cc2ccc(F)cc2Cl)c([C@H]2CC[C@H](c3ccccc3)CC2)[nH]1 [Compound 3x] | < 50 nM | > 10 nM
8 | COc1ccccc1Cc1c(=O)[nH]c(=O)[nH]c1[C@H]1CC[C@H](c2ccccc2)CC1 [Compound 3u] | 50 to 100 nM | < 5 nM
9 | Cc1cccc(Cc2c(=O)[nH]c(=O)[nH]c2[C@H]2CC[C@H](c3ccccc3)CC2)c1 [Compound 3h, (E)-5-(3-Methylbenzyl)-6-(4-phenylcyclohexyl)-1H-pyrimidine-2,4-dione] | < 50 nM | < 5 nM
10 | COCCn1c(=O)[nH]c([C@H]2CC[C@H](c3ccccc3)CC2)c(Cc2cccc(C(F)(F)F)c2)c1=O [Compound 13g, (E)-3-(2-Methoxy-ethyl)-6-(4-phenyl-cyclohexyl)-5-(3-trifluoromethyl-benzyl)-1H-pyrimidine-2,4-dione] | > 100 nM | > 10 nM
11 | O=c1[nH]c(=O)c(Cc2cccc(F)c2F)c([C@H]2CC[C@H](c3ccccc3)CC2)[nH]1 [Compound 3z] | < 50 nM | < 5 nM
12 | CN(C)c1cccc(Cc2c(=O)[nH]c(=O)[nH]c2[C@H]2CC[C@H](c3ccccc3)CC2)n1 [Compound 3v] | < 50 nM | 5 to 10 nM
13 | O=c1[nH]c(=O)c(Cc2cccc(C(F)(F)F)c2)c([C@H]2CC[C@H](c3ccccc3)CC2)[nH]1 [Compound 3b, (E)-6-(4-Phenylcyclohexyl)-5-(3-trifluoromethylbenzyl)-1H-pyrimidine-2,4-dione] | < 50 nM | 5 to 10 nM
14 | Nc1cccc(Cc2c(=O)[nH]c(=O)[nH]c2[C@H]2CC[C@H](c3ccccc3)CC2)n1 [Compound 3cc] | > 100 nM | > 10 nM
15 | O=c1[nH]c(C2=CCC(c3ccccc3)CC2)c(Cc2ccccc2)c(=O)[nH]1 (stereo not drawn) [Compound 2a, 5-Benzyl-6-(4-phenylcyclohex-1-enyl)-1H-pyrimidine-2,4-dione] | > 100 nM | > 10 nM
16 | O=c1[nH]c(=O)c(Cc2ccccc2)c([C@H]2CC[C@@H](c3ccccc3)CC2)[nH]1 [Compound 3bb] | > 100 nM | > 10 nM
17 | O=c1[nH]c(=O)c(Cc2ccc(F)cc2F)c([C@H]2CC[C@H](c3ccccc3)CC2)[nH]1 [Compound 3y] | 50 to 100 nM | 5 to 10 nM
18 | Cc1cccc(Cc2c(=O)n(C)c(=O)[nH]c2[C@H]2CC[C@H](c3ccccc3)CC2)c1 [Compound 13a, (E)-3-Methyl-5-(3-methylbenzyl)-6-(4-phenylcyclohexyl)-1H-pyrimidine-2,4-dione] | < 50 nM | 5 to 10 nM
19 | O=c1[nH]c(=O)c(Cc2cc(Cl)ccc2Cl)c([C@H]2CC[C@H](c3ccccc3)CC2)[nH]1 [Compound 3g] | < 50 nM | < 5 nM
20 | O=c1[nH]c(=O)c(Cc2ccc(Cl)cc2Cl)c([C@H]2CC[C@H](c3ccccc3)CC2)[nH]1 [Compound 3f] | < 50 nM | 5 to 10 nM

Row | Compound | Ki [1] | Ki [2]
21 | O=c1[nH]c(=O)c(Cc2ncccn2)c([C@H]2CC[C@H](c3ccccc3)CC2)[nH]1 [Compound 3k] | > 100 nM | > 10 nM
22 | O=c1[nH]c(=O)c(Cc2ccccc2Cl)c([C@H]2CC[C@H](c3ccccc3)CC2)[nH]1 [Compound 3c] | < 50 nM | < 5 nM
23 | Cc1ccccc1Cc1c(C2=CCC(c3ccccc3)CC2)[nH]c(=O)[nH]c1=O (stereo not drawn) [Compound 2d] | > 100 nM | > 10 nM
24 | O=c1[nH]c(=O)c(Cc2ccccn2)c([C@H]2CC[C@H](c3ccccc3)CC2)[nH]1 [Compound 3p] | > 100 nM | > 10 nM
25 | Cc1csc(Cc2c(=O)[nH]c(=O)[nH]c2[C@H]2CC[C@H](c3ccccc3)CC2)n1 [Compound 3t] | > 100 nM | > 10 nM
26 | O=c1[nH]c(=O)c(Cc2nccs2)c([C@H]2CC[C@H](c3ccccc3)CC2)[nH]1 [Compound 3o] | > 100 nM | > 10 nM
27 | Cn1c(=O)[nH]c([C@H]2CC[C@H](c3ccccc3)CC2)c(Cc2cccc(C(F)(F)F)c2)c1=O [Compound 13d, (E)-3-Methyl-6-(4-phenyl-cyclohexyl)-5-(3-trifluoromethyl-benzyl)-1H-pyrimidine-2,4-dione] | > 100 nM | 5 to 10 nM
28 | O=c1[nH]c(=O)c(Cc2cc(C(F)(F)F)ccn2)c([C@H]2CC[C@H](c3ccccc3)CC2)[nH]1 [Compound 3r] | 50 to 100 nM | > 10 nM
29 | Cc1cccc(Cc2c(C3=CCC(c4ccccc4)CC3)[nH]c(=O)[nH]c2=O)c1 (stereo not drawn) [Compound 2b] | 50 to 100 nM | 5 to 10 nM
30 | O=c1[nH]c(=O)c(Cc2c(Cl)cccc2Cl)c([C@H]2CC[C@H](c3ccccc3)CC2)[nH]1 [Compound 3e] | 50 to 100 nM | 5 to 10 nM
31 | Cc1cccc(Cc2c(=O)[nH]c(=O)[nH]c2[C@H]2CC[C@H](c3ccccc3)CC2)n1 [Compound 3j] | 50 to 100 nM | > 10 nM
32 | Cc1cccc(Cc2c(=O)n(CCN(C)C)c(=O)[nH]c2[C@H]2CC[C@H](c3ccccc3)CC2)c1 [Compound 13b] | > 100 nM | > 10 nM
33 | O=c1[nH]c(C2=CCC(c3ccccc3)CC2)c(Cc2ccccc2Cl)c(=O)[nH]1 (stereo not drawn) [Compound 2c] | > 100 nM | 5 to 10 nM
34 | Cn1c(=O)[nH]c([C@H]2CC[C@H](c3ccccc3)CC2)c(Cc2ccccc2)c1=O [Compound 13h] | 50 to 100 nM | > 10 nM
35 | O=c1[nH]c(=O)c(Cc2cccc(Cl)c2Cl)c([C@H]2CC[C@H](c3ccccc3)CC2)[nH]1 [Compound 3d] | < 50 nM | < 5 nM
36 | O=c1[nH]c(=O)c(Cc2ccc(F)c(F)c2)c([C@H]2CC[C@H](c3ccccc3)CC2)[nH]1 [Compound 3w] | 50 to 100 nM | > 10 nM
37 | CCc1ccccc1Cc1c(=O)[nH]c(=O)[nH]c1[C@H]1CC[C@H](c2ccccc2)CC1 [Compound 3s] | 50 to 100 nM | 5 to 10 nM
38 | O=c1[nH]c(=O)c(Cc2ccccc2)c([C@H]2CC[C@H](c3ccccc3)CC2)[nH]1 [Compound 3a, (E)-5-Benzyl-6-(4-phenylcyclohexyl)-1H-pyrimidine-2,4-dione] | < 50 nM | < 5 nM
39 | Cc1cc(Cc2c(=O)[nH]c(=O)[nH]c2[C@H]2CC[C@H](c3ccccc3)CC2)ccn1 [Compound 3n] | > 100 nM | > 10 nM
